The source of these data is patent US20200216441A1, “PESTICIDALLY ACTIVE HETEROCYCLIC DERIVATIVES WITH SULFUR CONTAINING SUBSTITUENTS” (SYNGENTA PARTICIPATIONS AG, priority 2017, published 2020).

One may read the melting point as the temperature, or range, at which the solid turns liquid. By mortality is commonly meant the share of the test organisms that died.

The test system of data set [1] is Bemisia tabaci (Cotton White Fly). The following applies: in Gossypium hirsutum, foliar, 144 h.
The test system of data set [2] is Euschistus heros (Neotropical Brown Stink Bug). Briefly: whole plant or invertebrate. In kind it is in vivo. The conditions noted are these: 120 h, application rate of 200 ppm, N2 nymphs on sprayed soybean leaves, 5 days after infestation, read-out: effect in at least one of the two categories (mortality or growth inhibition).
The test system of data set [3] is Spodoptera littoralis (Egyptian Cotton Leaf Worm). Briefly: whole plant or invertebrate. The conditions noted are these: in Gossypium barbadense, foliar, 72 h, read-out: control (mortality, anti-feeding effect, growth inhibition).
Data set [4] has as its system Diabrotica Balteata (Corn Root Worm). Briefly: Diabrotica balteata (Corn Root Worm). The following applies: in Zea mays, 96 h, read-out: effect in at least one of the two categories (mortality or growth inhibition).
The test system of data set [5] is Myzus persicae (Green Peach Aphid). Briefly: whole plant or invertebrate. Type of data set: in vivo. The conditions noted are these: 144 h, test rate of 24 ppm, systemic, roots of infested pea seedlings in test solution, 6 days.
For data set [6] the test system is unchanged. Kind of data set: whole plant or invertebrate. The following applies: foliar, 144 h.
Data set [7] relates to Frankliniella occidentalis (Western Flower Thrips). The following applies: foliar, 168 h.
The subject of data set [8] is Spodoptera littoralis (Egyptian Cotton Leaf Worm). Briefly: Spodoptera littoralis (Egyptian Cotton Leaf Worm), uptake by lettuce roots from agar. Type of data set: in vivo. The following applies: 144 h, test rate of 12.5 ppm, compound in agar absorbed by lettuce roots, 6 days after infestation, read-out: effect in at least one of the three categories (mortality, anti-feeding, or growth inhibition). The source says:
Example B10: Spodoptera littoralis (Egyptian Cotton Leaf Worm)
Test compounds were applied by pipette from 10′000 ppm DMSO stock solutions into 24-well plates and mixed with agar. Lettuce seeds were placed onto the agar and the multi well plate was closed by another plate which contained also agar. After 7 days the compound was absorbed by the roots and the lettuce grew into the lid plate. The lettuce leaves were then cut off into the lid plate. Spodoptera eggs were pipetted through a plastic stencil onto a humid gel blotting paper and the lid plate was closed with it.

In data set [9] the test system is Plutella xylostella (Diamond Back Moth). Briefly: whole plant or invertebrate. Type of data set: in vivo. The conditions noted are these: 120 h, application rate of 200 ppm, L2 larvae on treated artificial diet, 5 days after infestation, read-out: effect in at least one of the two categories (mortality or growth inhibition).
Data set [10] has as its system Tetranychus urticae (Two-Spotted Spider Mite). The following applies: foliar, 192 h.

In turn, `CCS(=O)(=O)c1cc(OC(C)(F)F)ccc1-c1nc2cc(C(F)(F)F)ncc2n1C` registered a melting point of 142 to 144 °C.

Regarding `CCS(=O)(=O)c1cc(OC(SC)C(=O)OC)cnc1-c1nc2cc(C(F)(F)F)ncc2n1C` (centres unmarked), the melting point is 94 to 96 °C.

As to `CCS(=O)(=O)c1cc(OC(C)(C)C(C)=O)cnc1-c1nc2cc(C(F)(F)F)ncc2n1C`, the melting point was 138 to 140 °C.

On to `CCS(=O)(=O)c1cc(OCSC)cnc1-c1nc2cc(C(F)(F)F)ncc2n1C` [Compound P10, 2-[3-ethylsulfonyl-5-(methylsulfanylmethoxy)-2-pyridyl]-3-methyl-6-(trifluoromethyl)imidazo[4,5-c]pyridine], for which the mortality at 200 ppm in data set [1], in data set [3], in [4], in data set [6] and in data set [7] was not below 80% in each case. The percent effect (mortality or growth inhibition) at 200 ppm in data set [2] is not below 80%. Also, the mortality at 24 ppm in data set [5] was not below 80%.

Regarding `CCS(=O)(=O)c1cc(OCC2CC2)cnc1-c1nc2cc(C(F)(F)F)ncc2n1C` [Compound P24, 2-[5-(cyclopropylmethoxy)-3-ethylsulfonyl-2-pyridyl]-3-methyl-6-(trifluoromethyl)imidazo[4,5-c]pyridine], the percent effect (mortality, anti-feeding or growth inhibition) at 12.5 ppm in data set [8] was not below 80%. Also, the percent effect (mortality or growth inhibition) at 200 ppm in data set [9] and in [2] was not below 80% throughout. The mortality at 200 ppm in [3], in [4] and in data set [6] was not below 80% in each case. In data set [5], this compound yielded a mortality at 24 ppm not below 80%.

With `CCS(=O)(=O)c1cc(OC(C)C)cnc1-c1nc2cc(C(F)(F)F)ncc2n1C` [Compound P28, 2-(3-ethylsulfonyl-5-isopropoxy-2-pyridyl)-3-methyl-6-(trifluoromethyl)imidazo[4,5-c]pyridine], the percent effect (mortality, anti-feeding or growth inhibition) at 12.5 ppm in data set [8] was not below 80%. In addition, the mortality at 200 ppm in data set [1], in data set [3], in data set [4] and in data set [6] was not below 80% each time. Besides, the percent effect (mortality or growth inhibition) at 200 ppm in data set [9] and in data set [2] was not below 80% throughout. In data set [5], this compound returned a mortality at 24 ppm not below 80%.

Take `CCS(=O)(=O)c1cc(OCC(C)(F)F)cnc1-c1nc2cc(C(F)(F)F)ncc2n1C` [Compound P41, 2-[5-(2,2-difluoropropoxy)-3-ethylsulfonyl-2-pyridyl]-3-methyl-6-(trifluoromethyl)imidazo[4,5-c]pyridine]: the mortality at 200 ppm in [1], in [3], in data set [4], in [6] and in data set [7] was not below 80% each time. In addition, the percent effect (mortality or growth inhibition) at 200 ppm in data set [9] and in [2] was not below 80% each time. In [5], this compound gave a mortality at 24 ppm not below 80%.

For `CCS(=O)(=O)c1cc(OC(CF)CF)cnc1-c1nc2cc(C(F)(F)F)ncc2n1C` [Compound P53, 2-[3-ethylsulfonyl-5-[2-fluoro-1-(fluoromethyl)ethoxy]-2-pyridyl]-3-methyl-6-(trifluoromethyl)imidazo[4,5-c]pyridine], the mortality at 200 ppm in data set [1], in data set [3], in data set [10], in data set [4], in data set [6] and in [7] was not below 80% each time. Moreover, the percent effect (mortality or growth inhibition) at 200 ppm in data set [9] and in [2] was not below 80% each time. Further, the mortality at 24 ppm in data set [5] was not below 80%.

For `CCS(=O)(=O)c1cc(OC(C)C)cnc1-c1nc2cc([S+]([O-])C(F)(F)F)ncc2n1C` (centres unmarked) [Compound P60, 2-(3-ethylsulfonyl-5-isopropoxy-2-pyridyl)-3-methyl-6-(trifluoromethylsulfinyl)imidazo[4,5-c]pyridine], the mortality at 200 ppm in data set [1], in data set [3], in data set [10], in data set [6] and in data set [7] was not below 80% each time. In addition, the percent effect (mortality or growth inhibition) at 200 ppm in data set [9] and in data set [2] was not below 80% each time. Also, in [5], the mortality at 24 ppm is not below 80%.

For the compound `CCS(=O)(=O)c1cc(OC(C)(F)F)cnc1-c1nc2cc(C(F)(F)F)ncc2n1C` [Compound P78, 2-[5-(1,1-difluoroethoxy)-3-ethylsulfonyl-2-pyridyl]-3-methyl-6-(trifluoromethyl)imidazo[4,5-c]pyridine], the mortality at 200 ppm in data set [1], in data set [3], in data set [4], in data set [6] and in [7] was not below 80% throughout. For the same compound, the percent effect (mortality or growth inhibition) at 200 ppm in data set [9] and in data set [2] was not below 80% throughout. In data set [5], this compound displayed a mortality at 24 ppm not below 80%.

Take `CCS(=O)(=O)c1cc(ON=C(C)C)cnc1-c1nc2cc(C(F)(F)F)ncc2n1C` [Compound P97, N-[[5-ethylsulfonyl-6-[3-methyl-6-(trifluoromethyl)imidazo[4,5-c]pyridin-2-yl]-3-pyridyl]oxy]propan-2-imine]: the percent effect (mortality, anti-feeding or growth inhibition) at 12.5 ppm in data set [8] is not below 80%. The mortality at 200 ppm in data set [1], in [3], in data set [4] and in data set [6] was not below 80% throughout. The percent effect (mortality or growth inhibition) at 200 ppm in data set [9] and in [2] was not below 80% each time.

`CCS(=O)(=O)c1cc(OC(F)(F)Br)cnc1-c1nc2cc(C(F)(F)F)ncc2n1C` [Compound P99, 2-[5-[bromo(difluoro)methoxy]-3-ethylsulfonyl-2-pyridyl]-3-methyl-6-(trifluoromethyl)imidazo[4,5-c]pyridine]: the percent effect (mortality, anti-feeding or growth inhibition) at 12.5 ppm in [8] is not below 80%. Also, the percent effect (mortality or growth inhibition) at 200 ppm in data set [9] and in data set [2] was not below 80% in each case. In addition, the mortality at 200 ppm in [3], in data set [10] and in [4] was not below 80% in each case.

In the case of `CCS(=O)(=O)c1cc(OC(C)(C)C#N)ccc1-c1nc2cc(C(F)(F)F)ncc2n1C` [Compound P103, 2-[3-ethylsulfonyl-4-[3-methyl-6-(trifluoromethyl)imidazo[4,5-c]pyridin-2-yl]phenoxy]-2-methyl-propanenitrile], the mortality at 200 ppm in data set [1], in data set [3], in data set [10], in data set [4], in data set [6] and in data set [7] was not below 80% in each case. Also, the percent effect (mortality or growth inhibition) at 200 ppm in data set [9] and in [2] was not below 80% in each case. In addition, the mortality at 24 ppm in [5] is not below 80%.
